According to patent US12371454B2, “Cyclic peptide compound having Kras inhibitory action” (priority 2019, dated 2025):
Starred links: 1 amine or outer side, 2 acyl side, 3 side chain; linkers in the order of their positions; H or OH if unused. Positions of bridges follow the written chain, without caps; N, C: chain ends. Non-standard residues stand in square brackets, D forms with d. Residues, ends and D or L forms follow the SMILES beside them. *: point of attachment. hPhe(3-Cl-4-CF3) = N[C@@H](CCc1ccc(C(F)(F)F)c(Cl)c1)C(=O)O; hPhe(3-F,4-CF3) = N[C@@H](CCc1ccc(C(F)(F)F)c(F)c1)C(=O)O; X16 = Cn1ccc2ccc(CC[C@H](N[*:1])C(=O)[*:2])cc21; 3Oxa8azabicyclo(3.2.1)octane = C1CC2COCC1N2*; NMePhe(4-Cl) = CN[C@@H](Cc1ccc(Cl)cc1)C(=O)O; NMePhe(4-Me) = CN[C@@H](Cc1ccc(C)cc1)C(=O)O; NMePhe(4-F) = CN[C@@H](Cc1ccc(F)cc1)C(=O)O; NMeAla(cPent) = CN[C@@H](CC1CCCC1)C(=O)O; NMeGly(cPent) = CN[C@H](C(=O)O)C1CCCC1; oXylylene = c1ccc(C[*:2])c(C[*:1])c1; NMeGly(cBu) = CN[C@H](C(=O)O)C1CCC1; NMeCha = CN[C@@H](CC1CCCCC1)C(=O)O; Hyp = O=C(O)[C@@H]1C[C@@H](O)CN1; NEtLeu = CCN[C@@H](CC(C)C)C(=O)O; NMeAhp(2) = CCCCC[C@H](NC)C(=O)O; NMeChg = CN[C@H](C(=O)O)C1CCCCC1; NMeI = CC[C@H](C)[C@H](NC)C(=O)O; NMeD = CN[C@@H](CC(=O)O)C(=O)O; NMeL = CN[C@@H](CC(C)C)C(=O)O; NMeNva = CCC[C@H](NC)C(=O)O; NMeV = CN[C@H](C(=O)O)C(C)C; d(β3hA) = C[C@@H](N)CC(=O)O; Azetidin(1-yl) = C1CN(*)C1; NMeS = CN[C@@H](CO)C(=O)O; Morpholide = C1CN(*)CCO1; NMeA = CN[C@@H](C)C(=O)O; Piperidide = C1CCN(*)CC1; Pyrrolidide = C1CCN(*)C1; Ac5c = NC1(C(=O)O)CCCC1; Aze = O=C(O)[C@@H]1CCN1; Aib = CC(C)(N)C(=O)O; Sar = CNCC(=O)O; Propyl = CCC*

system: Human pancreatic cancer cell line AsPC-1; assay: Measurement of AsPC-1 cell growth inhibition (AsPC-1 CGI); assay type: cell-based; details: 96 h
Outline: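 AsPC-1 cells in 15% FBS RPMI-1640 were exposed to test compound for 96 hours at 37° C, with CellTiter-Glo as endpoint.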

| SMILES | IC50 [µM] |
| --- | --- |
| CC[C@H](C)[C@@H]1NC(=O)[C@H](C(C)C)N(C)C(=O)C[C@@H](C)NC(=O)[C@H](CC(C)C)N(C)C(=O)C(C)(C)NC(=O)[C@H](CC(C)C)N(C)C(=O)[C@H](CCc2ccc(C(F)(F)F)c(Cl)c2)NC(=O)CN(C)C(=O)[C@H](Cc2ccc(Cl)cc2)N(C)C(=O)CN(C)C(=O)CN(C)C1=O [Compound 740] (cyclo([Aib][NMeL][d(β3hA)][NMeV]I[Sar][Sar][NMePhe(4-Cl)][Sar][hPhe(3-Cl-4-CF3)][NMeL])) | 0.1 to 0.5 |
| CCCOC[C@H]1C(=O)N(C)CC(=O)N[C@@H](CCc2ccc(C(F)(F)F)c(F)c2)C(=O)N2CCC[C@H]2C(=O)NC2(CCCC2)C(=O)N(C)[C@@H]([C@@H](C)CC)C(=O)N(C)[C@H](C(=O)N2C3CCC2COC3)CC(=O)N(C)[C@@H](CC(C)C)C(=O)N[C@@H]([C@@H](C)CC)C(=O)N(C)[C@@H](C)C(=O)N2CC[C@H]2C(=O)N1C [Compound 408] ([NMeL]I[NMeA][Aze][NMeS](Propyl)[Sar][hPhe(3-F,4-CF3)]P[Ac5c][NMeI][NMeD]-{3Oxa8azabicyclo(3.2.1)octane}; lactam N-11) | 0.05 to 0.1 |
| CC[C@H](C)[C@@H]1NC(=O)[C@H](CC(C)C)N(C)C(=O)C[C@@H](C(=O)N2CCC2)N(C)C(=O)[C@H](C(C)C)N(C)C(=O)C2(CCCC2)NC(=O)[C@@H]2CCCN2C(=O)[C@H](CCc2ccc(C(F)(F)F)c(Cl)c2)NC(=O)CN(C)C(=O)[C@H](CC2CCCCC2)N(C)C(=O)[C@@H]2CCN2C(=O)[C@H](C)N(C)C1=O [Compound 256] ([NMeL]I[NMeA][Aze][NMeCha][Sar][hPhe(3-Cl-4-CF3)]P[Ac5c][NMeV][NMeD]-{Azetidin(1-yl)}; lactam N-11) | 0.1 to 0.5 |
| CCCOC[C@H]1C(=O)N(C)CC(=O)N[C@@H](CCc2ccc(C(F)(F)F)c(Cl)c2)C(=O)N2CCC[C@H]2C(=O)NC2(CCCC2)C(=O)N(C)[C@@H](C(C)C)C(=O)N(C)[C@H](C(=O)N2CCCCC2)CC(=O)N(C)[C@@H](CC(C)C)C(=O)N[C@@H]([C@@H](C)CC)C(=O)N(C)[C@@H](C)C(=O)N2CC[C@H]2C(=O)N1C [Compound 1646] ([NMeL]I[NMeA][Aze][NMeS](Propyl)[Sar][hPhe(3-Cl-4-CF3)]P[Ac5c][NMeV][NMeD]-Piperidide; lactam N-11) | 0.1 to 0.5 |
| CC[C@H](C)[C@@H]1NC(=O)[C@H](CC(C)C)N(C)C(=O)C[C@@H](C(=O)N2CCOCC2)N(C)C(=O)[C@H](C2CCCC2)N(C)C(=O)C2(CCCC2)NC(=O)[C@@H]2CCCN2C(=O)[C@H](CCc2ccc(C(F)(F)F)c(Cl)c2)NC(=O)CN(C)C(=O)[C@H](CC2CCCCC2)N(C)C(=O)[C@@H]2CCN2C(=O)[C@H](C)NC1=O [Compound 1137] ([NMeL]IA[Aze][NMeCha][Sar][hPhe(3-Cl-4-CF3)]P[Ac5c][NMeGly(cPent)][NMeD]-Morpholide; lactam N-11) | 0.02 to 0.05 |
| CC[C@H](C)[C@@H]1NC(=O)[C@H](CC(C)C)N(C)C(=O)C[C@@H](C(=O)N2CCCC2)N(C)C(=O)[C@H](C2CCCCC2)N(C)C(=O)C2(CCCC2)NC(=O)[C@@H]2CCCN2C(=O)[C@H](CCc2ccc(C(F)(F)F)c(Cl)c2)NC(=O)CN(C)C(=O)[C@H](Cc2ccc(C)cc2)N(C)C(=O)[C@@H]2CCN2C(=O)[C@H](C)N(C)C1=O [Compound 1852] ([NMeL]I[NMeA][Aze][NMePhe(4-Me)][Sar][hPhe(3-Cl-4-CF3)]P[Ac5c][NMeChg][NMeD]-Pyrrolidide; lactam N-11) | 0.02 to 0.05 |
| CC[C@H](C)[C@@H]1NC(=O)[C@H](CC(C)C)N(C)C(=O)C[C@@H](C(=O)N2CCCCC2)N(C)C(=O)[C@H](C2CCCC2)N(C)C(=O)C2(CCCC2)NC(=O)[C@@H]2CCCN2C(=O)[C@H](CCc2ccc(C(F)(F)F)c(Cl)c2)NC(=O)CN(C)C(=O)[C@H](Cc2ccc(F)cc2)N(C)C(=O)[C@@H]2CCN2C(=O)[C@H](C)N(C)C1=O [Compound 388] ([NMeL]I[NMeA][Aze][NMePhe(4-F)][Sar][hPhe(3-Cl-4-CF3)]P[Ac5c][NMeGly(cPent)][NMeD]-Piperidide; lactam N-11) | 0.02 to 0.05 |
| CC[C@H](C)[C@@H]1NC(=O)[C@H](CC(C)C)N(C)C(=O)C[C@@H](C(=O)N2CCCCC2)N(C)C(=O)[C@H](C2CCCC2)N(C)C(=O)C2(CCCC2)NC(=O)[C@@H]2CCCN2C(=O)[C@H](CCc2ccc(C(F)(F)F)c(Cl)c2)NC(=O)CN(C)C(=O)[C@H](C2CCC2)N(C)C(=O)[C@@H]2CCN2C(=O)[C@H](C)N(C)C1=O [Compound 127] ([NMeL]I[NMeA][Aze][NMeGly(cBu)][Sar][hPhe(3-Cl-4-CF3)]P[Ac5c][NMeGly(cPent)][NMeD]-Piperidide; lactam N-11) | 0.02 to 0.05 |
| CC[C@H](C)[C@@H]1NC(=O)[C@H](CC(C)C)N(C)C(=O)C[C@@H](C(=O)N2CCOCC2)N(C)C(=O)[C@H](C(C)C)N(C)C(=O)C2(CCCC2)NC(=O)[C@@H]2CCCN2C(=O)[C@H](CCc2ccc(C(F)(F)F)c(Cl)c2)NC(=O)CN(C)C(=O)[C@H](CC2CCCCC2)N(C)C(=O)[C@@H]2CCN2C(=O)CN(C)C1=O [Compound 1758] ([NMeL]I[Sar][Aze][NMeCha][Sar][hPhe(3-Cl-4-CF3)]P[Ac5c][NMeV][NMeD]-Morpholide; lactam N-11) | 0.1 to 0.5 |
| CC[C@H](C)[C@@H]1NC(=O)[C@H](CC2CCCC2)N(C)C(=O)C[C@@H](C(=O)N2CCC2)N(C)C(=O)[C@H](C2CCCC2)N(C)C(=O)C2(CCCC2)NC(=O)[C@@H]2CCCN2C(=O)[C@H](CCc2ccc(C(F)(F)F)c(Cl)c2)NC(=O)CN(C)C(=O)[C@H](CC2CCCCC2)N(C)C(=O)[C@@H]2CCN2C(=O)[C@H](C)NC1=O [Compound 921] ([NMeAla(cPent)]IA[Aze][NMeCha][Sar][hPhe(3-Cl-4-CF3)]P[Ac5c][NMeGly(cPent)][NMeD]-{Azetidin(1-yl)}; lactam N-11) | 0.02 to 0.05 |
| CCCCC[C@H]1C(=O)N[C@@H]([C@@H](C)CC)C(=O)N(C)[C@@H](C)C(=O)N2CC[C@H]2C(=O)N(C)[C@@H](COCCC)C(=O)N(C)CC(=O)N[C@@H](CCc2ccc(C(F)(F)F)c(Cl)c2)C(=O)N2CCC[C@H]2C(=O)NC2(CCCC2)C(=O)N(C)[C@@H](C2CCCC2)C(=O)N(C)[C@H](C(=O)N2C3CCC2COC3)CC(=O)N1C [Compound 622] ([NMeAhp(2)]I[NMeA][Aze][NMeS](Propyl)[Sar][hPhe(3-Cl-4-CF3)]P[Ac5c][NMeGly(cPent)][NMeD]-{3Oxa8azabicyclo(3.2.1)octane}; lactam N-11) | 0.02 to 0.05 |
| CC[C@H](C)[C@@H]1NC(=O)[C@H](CC(C)C)N(C)C(=O)C[C@@H](C(=O)N2CCCCC2)N(C)C(=O)[C@H](CC(C)C)N(C)C(=O)C2(CCCC2)NC(=O)[C@@H]2C[C@@H](OCc3ccccc3C)CN2C(=O)[C@H](CCc2ccc(C(F)(F)F)c(F)c2)NC(=O)CN(C)C(=O)[C@H](CC2CCCCC2)N(C)C(=O)CN(C)C(=O)CN(C)C1=O [Compound 2139] ([NMeL]I[Sar][Sar][NMeCha][Sar][hPhe(3-F,4-CF3)][Hyp](oXylylene)[Ac5c][NMeL][NMeD]-Piperidide; lactam N-11) | 0.1 to 0.5 |
| CC[C@H](C)[C@@H]1NC(=O)[C@H](CC(C)C)N(C)C(=O)C[C@@H](C)NC(=O)[C@H](C2CCCC2)N(C)C(=O)C2(CCCC2)NC(=O)[C@@H]2CCCN2C(=O)[C@H](CCc2ccc(C(F)(F)F)c(Cl)c2)NC(=O)CN(C)C(=O)[C@H](Cc2ccc(C)cc2)N(C)C(=O)CN(C)C(=O)CN(C)C1=O [Compound 1471, (3S,9S,18S,21S,25R,28S,34S)-3-[2-[3-chloro-4-(trifluoromethyl)phenyl]ethyl]-28-cyclopentyl-21-isobutyl-7,10,13,16,22,25,29-heptamethyl-18-[(1S)-1-methylpropyl]-9-(p-tolylmethyl)spiro[1,4,7,10,13,16,19,22,26,29,32-undecazabicyclo[32.3.0]heptatriacontane-31,1′-cyclopentane]-2,5,8,11,14,17,20,23,27,30,33-undecone] (cyclo([Ac5c][NMeGly(cPent)][d(β3hA)][NMeL]I[Sar][Sar][NMePhe(4-Me)][Sar][hPhe(3-Cl-4-CF3)]P)) | 0.1 to 0.5 |
| CCC[C@H]1C(=O)N[C@@H]([C@@H](C)CC)C(=O)N(C)[C@@H](C)C(=O)N2CC[C@H]2C(=O)N(C)[C@@H](CC2CCCCC2)C(=O)N(C)CC(=O)N[C@@H](CCc2ccc(C(F)(F)F)c(Cl)c2)C(=O)N2CCC[C@H]2C(=O)NC2(CCCC2)C(=O)N(C)[C@@H](C(C)C)C(=O)N[C@H](C)CC(=O)N1C [Compound 1564] (cyclo([Ac5c][NMeV][d(β3hA)][NMeNva]I[NMeA][Aze][NMeCha][Sar][hPhe(3-Cl-4-CF3)]P)) | 0.1 to 0.5 |
| CC[C@H](C)[C@@H]1NC(=O)[C@H](CC(C)C)N(C)C(=O)C[C@@H](C(=O)N2C3CCC2COC3)N(C)C(=O)[C@H]([C@@H](C)CC)N(C)C(=O)C2(CCCC2)NC(=O)[C@@H]2CCCN2C(=O)[C@H](CCc2ccc(C(F)(F)F)c(Cl)c2)NC(=O)CN(C)C(=O)[C@H](C2CCCC2)N(C)C(=O)[C@@H]2CCN2C(=O)[C@H](C)N(C)C1=O [Compound 1002] ([NMeL]I[NMeA][Aze][NMeGly(cPent)][Sar][hPhe(3-Cl-4-CF3)]P[Ac5c][NMeI][NMeD]-{3Oxa8azabicyclo(3.2.1)octane}; lactam N-11) | 0.02 to 0.05 |
| CC[C@H](C)[C@@H]1NC(=O)[C@H](CC(C)C)N(CC)C(=O)C[C@@H](C)NC(=O)[C@H](C2CCCC2)N(C)C(=O)C2(CCCC2)NC(=O)[C@@H]2CCCN2C(=O)[C@H](CCc2ccc(C(F)(F)F)c(Cl)c2)NC(=O)CN(C)C(=O)[C@H](Cc2ccc(C)cc2)N(C)C(=O)[C@@H]2CCN2C(=O)[C@H](C)N(C)C1=O [Compound 531] (cyclo([Ac5c][NMeGly(cPent)][d(β3hA)][NEtLeu]I[NMeA][Aze][NMePhe(4-Me)][Sar][hPhe(3-Cl-4-CF3)]P)) | 0.02 to 0.05 |
| CC[C@H](C)[C@@H]1NC(=O)[C@H](CC(C)C)N(C)C(=O)C[C@@H](C(=O)N2CCCCC2)N(C)C(=O)[C@H](C2CCCC2)N(C)C(=O)C2(CCCC2)NC(=O)[C@@H]2CCCN2C(=O)[C@H](CCc2ccc3ccn(C)c3c2)NC(=O)CN(C)C(=O)[C@H](CC2CCCCC2)N(C)C(=O)[C@@H]2CCN2C(=O)[C@H](C)N(C)C1=O [Compound 2065] ([NMeL]I[NMeA][Aze][NMeCha][Sar][X16]P[Ac5c][NMeGly(cPent)][NMeD]-Piperidide; lactam N-11) | 0.1 to 0.5 |
